Where two headings read alike, the source gives them in different places.
Key:
[1] = Aqueous solvolysis reactivity followed by UV; type: physicochemical; details: for half-life: read-out: solvolysis half-life t1/2 (converted)
Experimental: The reactivity of 217-219 was assessed by following the solvolysis spectrophotometrically by UV at both pH 3 (50% CH3 OH-buffer, buffer=4:1:20 (v/v/v) 0.1 M citric acid, 0.2 M Na2 HPO4, H2 O) and pH 7 (1:1 H2 O--CH3 OH) measuring both the disappearance of the long-wavelength absorption band of the F2 CBI chromophore and the appearance of a short-wavelength absorption band attributable to the ring open products (FIG. 31).
Aqueous Solvolysis Reactivity. pH 3: N-BOC-CCBI (25, 100 μg) was dissolved in CH3 OH (1.5 mL) and mixed with pH 3 aqueous buffer (1.5 mL). The buffer contained 4:1:20 (v:v:v) 0.1 M citric acid, 0.2 M Na2 HPO4 and H2 O, respectively. The solvolysis solution was sealed and kept at 25° C. protected from light. The UV spectrum was measured at regular intervals every 2 h during the first day, every 12 h for another week, and every 24 h for an additional week. The decrease in the long-wavelength absorption at 322 nm and the increase in the short-wavelength absorption at 268 nm were monitored, FIG. 1.
pH 2: Samples of 25 (100 μg) and 26 (50 μg) were dissolved in CH3 OH (1.5 mL) and the solutions were mixed with aqueous buffer (pH 2.05, 1.5 mL). The buffer contained 4:1:20 (v:v:v) 1.0 M citric acid, 0.2 M Na2 HPO4, and H2 O, respectively. Immediately after mixing, the UV spectra of the solutions were measured against a reference solution containing CH3 OH (1.5 mL) and the aqueous buffer (1.5 mL) and these readings were used for the initial absorbance values. The solutions were stoppered, protected from the light, and allowed to stand at 25° C. UV spectra were recorded at regular intervals until constant values were obtained for the long and short wavelength absorbances. The solvolysis rate constants were determined from the slope of the lines obtained from linear least squares treatment of plots of ln[(Af -Ai)/(Af -A)] versus time using the short wavelength measurements for 25 and long wavelength measurements for 26).

[2] = Solvolysis regioselectivity (acid-catalyzed nucleophilic addition to the cyclopropane); type: physicochemical; details: C9 addition versus ring expansion
From the text: Solvolysis: Reactivity. Two fundamental characteristics of the alkylation subunits have proven important in the studies to date. The first is the stereoelectronically-controlled acid-catalyzed ring-opening of the cyclopropane which dictates preferential addition of a nucleophile to the least substituted cyclopropane carbon. With the CBI series of modified alkylation subunits where this stereoelectronic alignment of the C8b-C9 bond is nearly optimized, exclusive (≥20:1) addition to the C9 center with cleavage of the C8b-C9 bond is observed. […] Thus, the impact of the difluorocyclopropane substitution on the reactivity and reaction regioselectivity of CBI was examined.
Solvolysis: Regioselectivity. Treatment of both 217 and 219 with catalytic CF3 SO3 H (0.1 equiv) in CH3 OH (0° C.) rapidly and cleanly provided a single characterizable product 225 (30 min, 90%) or 226 (10 min, 79%), FIG. 33. […] Furthermore, the ^1 H-^13 C HMBC NMR spectrum of 226 established the carbon-carbon connectivity of C1 (δ51.0) with the CF2 carbon (δ50.3, t) and C9b (δ125.0). No connectivity between the key CF2 carbon (δ50.3, t) and […] was detected as required of the ring expansion regioisomer. This was unambiguously established by conducting the solvolysis in THF-H2 O catalyzed by CF3 SO3 H (0.12 equiv) which cleanly provided 227 (18 h, 85%), FIG. 33. […]

L1210 = assay: In vitro cytotoxic activity, L1210; details: N-BOC derivatives
[3] = pH 2 (buffer pH 2.05), CH3OH-buffer 1:1, 25° C.

CC(C)(C)OC(=O)N1CC2CC23C1=CC(=O)c1ccc(C#N)cc13 (stereo not drawn) [compound 25, N-(tert-Butyloxycarbonyl)-7-cyano-1,2,9,9a-tetrahydrocyclopropa[c]benz[e]indol-4-one]
first order solvolysis rate constant [1, 3]: 7.94e-06 s⁻¹
half-life [1, 3]: 24.2 h
solvolysis rate constant k ([1]; pH 3, 50% CH3OH-buffer): 9.9e-07 s⁻¹
half-life ([1]; pH 3, 50% CH3OH-buffer): 213 h
solvolysis regioselectivity, addition to the least substituted or C9 cyclopropane carbon [2]: nucleophilic addition to the least substituted carbon of the activated cyclopropane was observed exclusively
relative cytotoxic potency of natural versus unnatural enantiomers (L1210): 4 ×
